Laboratory results published in ChEMBL document CHEMBL4177521, “Therapeutic Potential of Fatty Acid Amide Hydrolase, Monoacylglycerol Lipase, and N-Acylethanolamine Acid Amidase Inhibitors” (J Med Chem, 2017).
Values belong to the molecule of their own block, whether it stands above or below them.

Key:
[1] = biological target: T1, N-acylethanolamine-hydrolyzing acid amidase (Homo sapiens, UniProt Q02083); test: Inhibition of NAAA (unknown origin)
T1 sequence (Q02083 whole entry): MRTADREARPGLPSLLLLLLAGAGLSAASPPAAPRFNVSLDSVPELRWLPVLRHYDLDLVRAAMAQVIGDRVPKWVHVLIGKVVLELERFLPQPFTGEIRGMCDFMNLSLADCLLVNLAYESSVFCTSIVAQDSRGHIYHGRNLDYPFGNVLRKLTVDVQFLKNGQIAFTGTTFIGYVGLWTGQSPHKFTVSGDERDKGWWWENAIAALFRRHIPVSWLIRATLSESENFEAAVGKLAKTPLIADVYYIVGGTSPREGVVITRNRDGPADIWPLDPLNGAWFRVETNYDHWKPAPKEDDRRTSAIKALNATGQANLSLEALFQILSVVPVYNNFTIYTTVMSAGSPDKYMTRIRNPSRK

[2] = biological target: T2, Fatty-acid amide hydrolase 1 (Homo sapiens, UniProt O00519); test: Inhibition of FAAH (unknown origin)
T2 sequence (O00519 whole entry): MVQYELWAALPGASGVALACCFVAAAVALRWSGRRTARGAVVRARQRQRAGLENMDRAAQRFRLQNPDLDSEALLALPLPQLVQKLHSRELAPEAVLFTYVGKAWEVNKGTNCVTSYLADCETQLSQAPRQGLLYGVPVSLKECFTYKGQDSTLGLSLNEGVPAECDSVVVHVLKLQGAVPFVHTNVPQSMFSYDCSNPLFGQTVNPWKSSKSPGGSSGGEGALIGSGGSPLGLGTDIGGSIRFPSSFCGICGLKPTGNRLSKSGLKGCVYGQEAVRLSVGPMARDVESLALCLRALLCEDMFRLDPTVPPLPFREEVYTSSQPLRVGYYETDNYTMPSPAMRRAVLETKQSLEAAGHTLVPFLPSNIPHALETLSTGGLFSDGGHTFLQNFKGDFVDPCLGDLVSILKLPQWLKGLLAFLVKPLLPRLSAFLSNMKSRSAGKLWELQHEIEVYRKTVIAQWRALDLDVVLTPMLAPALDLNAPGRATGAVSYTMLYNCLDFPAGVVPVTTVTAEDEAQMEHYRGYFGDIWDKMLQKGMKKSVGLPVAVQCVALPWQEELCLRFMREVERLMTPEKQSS

[3] = biological target: T3, Fatty-acid amide hydrolase 1 (Rattus norvegicus, UniProt P97612); test: Inhibition of Sprague-Dawley rat brain FAAH using [14C]anandamide as substrate by liquid scintillation counting method
T3 sequence (P97612 whole entry): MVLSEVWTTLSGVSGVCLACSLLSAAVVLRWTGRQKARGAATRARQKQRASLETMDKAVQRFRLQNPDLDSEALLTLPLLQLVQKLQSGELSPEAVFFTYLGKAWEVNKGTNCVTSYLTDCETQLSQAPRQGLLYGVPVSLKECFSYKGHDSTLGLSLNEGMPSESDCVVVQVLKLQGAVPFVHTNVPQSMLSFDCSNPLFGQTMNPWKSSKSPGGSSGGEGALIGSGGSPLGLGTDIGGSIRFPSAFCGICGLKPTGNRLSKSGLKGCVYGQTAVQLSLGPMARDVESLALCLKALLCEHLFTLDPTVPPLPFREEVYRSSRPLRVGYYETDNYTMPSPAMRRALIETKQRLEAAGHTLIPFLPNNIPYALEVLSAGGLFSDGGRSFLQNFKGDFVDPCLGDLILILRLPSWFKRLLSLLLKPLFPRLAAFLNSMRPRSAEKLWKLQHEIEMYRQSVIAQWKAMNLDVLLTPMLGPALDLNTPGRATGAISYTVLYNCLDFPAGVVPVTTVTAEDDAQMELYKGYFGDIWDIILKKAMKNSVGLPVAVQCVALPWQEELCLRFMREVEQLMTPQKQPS

[4] = biological target: T4, Fatty-acid amide hydrolase 1 (Mus musculus, UniProt O08914); test: Inhibition of mouse brain membrane FAAH preincubated for 10 mins followed by 14C-oleamide substrate addition measured up to 60 mins by TLC analysis
T4 sequence (O08914 whole entry): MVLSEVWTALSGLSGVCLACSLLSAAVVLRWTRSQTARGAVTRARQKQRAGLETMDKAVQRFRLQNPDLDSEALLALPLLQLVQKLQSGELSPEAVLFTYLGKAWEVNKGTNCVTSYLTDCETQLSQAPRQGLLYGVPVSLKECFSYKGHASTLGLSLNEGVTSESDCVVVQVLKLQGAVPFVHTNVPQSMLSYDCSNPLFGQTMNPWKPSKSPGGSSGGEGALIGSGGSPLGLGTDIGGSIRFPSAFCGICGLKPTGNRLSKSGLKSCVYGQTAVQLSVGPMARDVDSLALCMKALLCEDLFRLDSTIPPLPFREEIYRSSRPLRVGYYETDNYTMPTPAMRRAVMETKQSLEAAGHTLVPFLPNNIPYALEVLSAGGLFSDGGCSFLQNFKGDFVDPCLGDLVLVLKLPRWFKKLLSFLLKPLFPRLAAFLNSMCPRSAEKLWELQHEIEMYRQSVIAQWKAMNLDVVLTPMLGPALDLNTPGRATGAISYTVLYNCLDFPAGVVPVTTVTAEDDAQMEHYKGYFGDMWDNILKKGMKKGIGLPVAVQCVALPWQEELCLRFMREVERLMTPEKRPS

Monoglyceride lipase = biological target: T5, Monoglyceride lipase (Homo sapiens, UniProt Q99685); test: Inhibition of human MAGL
T5 sequence (Q99685 whole entry): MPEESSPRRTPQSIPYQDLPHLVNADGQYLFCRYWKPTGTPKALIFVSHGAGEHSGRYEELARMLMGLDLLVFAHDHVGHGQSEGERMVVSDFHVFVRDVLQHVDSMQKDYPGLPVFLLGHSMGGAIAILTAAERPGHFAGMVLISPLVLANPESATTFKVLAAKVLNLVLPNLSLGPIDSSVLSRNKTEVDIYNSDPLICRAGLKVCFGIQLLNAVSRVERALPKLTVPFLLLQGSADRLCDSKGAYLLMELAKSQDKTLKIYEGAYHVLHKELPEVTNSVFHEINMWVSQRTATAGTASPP

Cannabinoid receptor 1 = Cannabinoid receptor 1 (Homo sapiens, UniProt P21554); test: Antagonist activity at CB1R (unknown origin); format: functional
Sequence of Cannabinoid receptor 1 (P21554 whole entry): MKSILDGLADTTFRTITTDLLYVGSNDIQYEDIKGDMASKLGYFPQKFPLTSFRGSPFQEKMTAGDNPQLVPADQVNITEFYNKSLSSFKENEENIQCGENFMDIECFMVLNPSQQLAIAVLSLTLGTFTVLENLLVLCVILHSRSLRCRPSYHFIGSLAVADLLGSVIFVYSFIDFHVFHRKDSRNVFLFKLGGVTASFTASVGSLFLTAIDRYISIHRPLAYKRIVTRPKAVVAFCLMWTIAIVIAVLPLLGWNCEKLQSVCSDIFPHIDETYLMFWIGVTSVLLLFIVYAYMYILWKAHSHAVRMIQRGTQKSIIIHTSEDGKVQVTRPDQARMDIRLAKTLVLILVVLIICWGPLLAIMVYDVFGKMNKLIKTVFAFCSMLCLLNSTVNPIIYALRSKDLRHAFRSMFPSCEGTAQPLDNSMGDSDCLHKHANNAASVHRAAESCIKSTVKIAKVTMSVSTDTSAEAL

[5] = biological target: T3, Fatty-acid amide hydrolase 1; test: Inhibition of rat FAAH expressed in HEK293 cells by LC/MS analysis; format: cell-based
[6] = biological target: T6, N-acylethanolamine-hydrolyzing acid amidase (Rattus norvegicus, UniProt Q5KTC7); test: Inhibition of rat NAAA expressed in HEK293 cells by LC/MS analysis; format: cell-based
T6 sequence (Q5KTC7 whole entry): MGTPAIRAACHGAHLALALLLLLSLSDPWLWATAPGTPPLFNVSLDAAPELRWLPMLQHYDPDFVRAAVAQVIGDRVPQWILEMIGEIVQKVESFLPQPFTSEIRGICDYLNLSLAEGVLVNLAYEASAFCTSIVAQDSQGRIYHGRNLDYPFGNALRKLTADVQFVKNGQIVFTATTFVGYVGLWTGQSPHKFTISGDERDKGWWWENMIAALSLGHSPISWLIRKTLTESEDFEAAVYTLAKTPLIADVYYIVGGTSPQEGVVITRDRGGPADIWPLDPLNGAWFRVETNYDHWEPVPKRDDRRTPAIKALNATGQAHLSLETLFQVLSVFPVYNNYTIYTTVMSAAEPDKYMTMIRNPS

[7] = Half life in mouse liver microsomes; format: ADME, microsome
[8] = Cmax in CD1 mouse plasma at 3 mg/kg, iv; format: ADME, organism-based; design: dose 3 mg/kg, route intravenous; conditions: in vivo
[9] = Half life in CD1 mouse plasma at 3 mg/kg, iv; format: ADME, organism-based
[10] = Half life in rat liver microsomes; format: ADME, microsome
[11] = Half life in mouse plasma; format: ADME, cell-free
[12] = Half life in rat plasma; format: ADME, cell-free
[13] = Oral bioavailability in monkey at 10 mg/kg; format: ADME, organism-based, Macaca mulatta; conditions: rhesus monkey, in vivo
[14] = Half life in monkey at 10 mg/kg, po or 1 mg/kg, iv; format: ADME, organism-based, Macaca mulatta; conditions: rhesus monkey, in vivo
[15] = biological target: T4, Fatty-acid amide hydrolase 1; test: Inhibition of CD1 mouse FAAH

Structure (SMILES): S=C=NCCCCCCCCCCc1ccccc1
IC50 [1]: 30 nM
IC50 [2]: > 100000 nM

Structure (SMILES): CCCCCCCCCCCCCCCCS(=O)(=O)F [HEXADECANESULFONYL FLUORIDE]
IC50 [3]: 13 nM

Structure (SMILES): CCCCCCCCCCCCCCCN=C=S
IC50 (Monoglyceride lipase): > 10 µM
IC50 (Cannabinoid receptor 1): > 10 µM

Structure (SMILES): O=C(N[C@H]1CNC1=O)OCCCCC1CCCCC1
half-life [7]: < 5 min
Cmax [8]: 1610 ng/mL
half-life [9]: 15 min
half-life [10]: < 5 min
t1/2 [11]: 41 min
t1/2 [12]: 12 min

Structure (SMILES): COc1cc(NC(=O)C(=O)c2c(C)n(Cc3ccc(Cl)cc3)c3ccc(C)cc23)ccn1
bioavailability [13]: 14 to 21%
half-life [14]: 1020 to 1200 min
IC50 (Cannabinoid receptor 1): > 1 µM
IC50 [2]: 10 nM

Next, values leading:

IC50 [4]: 12.4 nM
Structure (SMILES): CN(C)C(=O)n1nnnc1Cc1ccc(-c2ccccc2)cc1

IC50 [5]: > 100 µM
IC50 [6]: 2120 nM
Structure (SMILES): O=C(CCc1ccc(-c2ccccc2)cc1)N1CCCC1

IC50 [15]: 9 nM
Structure (SMILES): C=C(OC(=O)N1CCCCC1)c1ccc(-c2ccccc2)cc1
